According to patent US12077503B2, “Substituted cyclic amides and their use as herbicides” (FMC CORPORATION, priority 2015, dated 2024):

Legend:
Type in all cases: in vivo
[1] = tested on: pigweed (Amaranthus retroflexus); assay: Test A preemergence
Description: (§1) Seeds of plant species selected from barnyardgrass (Echinochloa crus-galli), Kochia (Kochia scoparia), ragweed (common ragweed, Ambrosia elatior), ryegrass, Italian (Italian ryegrass, Lolium multiflorum), crabgrass, large (Digitaria sanguinalis), giant foxtail (Setaria faberii), green foxtail (Setaria viridis), morningglory (Ipomoea spp.), pigweed (Amaranthus retroflexus), velvetleaf (Abutilon theophrasti), wheat (Triticum aestivum), and corn (Zea mays) were planted into a blend of loam soil and sand and treated preemergence with a directed soil spray using test chemicals formulated in anon-phytotoxic solvent mixture which included a surfactant.
(§2) At the same time, plants selected from these crop and weed species and also blackgrass (Alopecurus myosuroides), and Galium (catchweed bedstraw, Galium aparine) were planted in pots containing the same blend of loam soil and sand and treated with postemergence applications of test chemicals formulated in the same manner. Plants ranged in height from 2 to 10 cm and were in the one- to two-leaf stage for the postemergence treatment. Treated plants and untreated controls were maintained in a greenhouse for approximately 10 d, after which time all treated plants were compared to untreated controls and visually evaluated for injury. Plant response ratings, summarized in Table A, are based on a 0 to 100 scale where 0 is no effect and 100 is complete control. A dash (-) response means no test result.

[2] = tested on: barnyardgrass (Echinochloa crus-galli); assay: Test A preemergence
Description: as §1, §2

[3] = tested on: ragweed (common ragweed, Ambrosia elatior); assay: Test A preemergence
Description: as §1, §2

[4] = tested on: Kochia (Kochia scoparia); assay: Test A preemergence
Description: as §1, §2

[5] = tested on: ryegrass, Italian (Italian ryegrass, Lolium multiflorum); assay: Test A preemergence
Description: as §1, §2

[6] = tested on: giant foxtail (Setaria faberii); assay: Test A preemergence
Description: as §1, §2

[7] = tested on: pigweed (Amaranthus retroflexus); assay: Test A postemergence; settings: postemergence; for Plant response rating, Pigweed: 0 to 100 scale, 0 no effect, 100 complete control
Description: as §1, §2

[8] = tested on: wheat (Triticum aestivum); assay: Test A postemergence; settings: postemergence; for Plant response rating, Wheat: 0 to 100 scale, 0 no effect, 100 complete control
Description: as §1, §2

[9] = tested on: blackgrass (Alopecurus myosuroides); assay: Test A postemergence; settings: postemergence; for Plant response rating, Blackgrass: 0 to 100 scale, 0 no effect, 100 complete control
Description: as §1, §2

[10] = tested on: barnyardgrass (Echinochloa crus-galli); assay: Test A postemergence; settings: postemergence; for Plant response rating, Barnyardgrass: 0 to 100 scale, 0 no effect, 100 complete control
Description: as §1, §2

[11] = tested on: ragweed (common ragweed, Ambrosia elatior); assay: Test A postemergence; settings: postemergence; for Plant response rating, Ragweed: 0 to 100 scale, 0 no effect, 100 complete control
Description: as §1, §2

[12] = tested on: Galium (catchweed bedstraw, Galium aparine); assay: Test A postemergence; settings: postemergence; for Plant response rating, Galium: 0 to 100 scale, 0 no effect, 100 complete control
Description: as §1, §2

[13] = tested on: Kochia (Kochia scoparia); assay: Test A postemergence; settings: postemergence; for Plant response rating, Kochia: 0 to 100 scale, 0 no effect, 100 complete control
Description: as §1, §2

[14] = tested on: corn (Zea mays); assay: Test A postemergence; settings: postemergence; for Plant response rating, Corn: 0 to 100 scale, 0 no effect, 100 complete control
Description: as §1, §2

[15] = tested on: ryegrass, Italian (Italian ryegrass, Lolium multiflorum); assay: Test A postemergence; settings: postemergence; for Plant response rating, Ryegrass, Italian: 0 to 100 scale, 0 no effect, 100 complete control
Description: as §1, §2

[16] = tested on: giant foxtail (Setaria faberii); assay: Test A postemergence; settings: postemergence; for Plant response rating, Foxtail, Giant: 0 to 100 scale, 0 no effect, 100 complete control
Description: as §1, §2

[17] = 125 g ai/ha, preemergence, 0 to 100 scale (0 no effect, 100 complete control)
[18] = Preemergence, 500 g ai/ha, visual injury approx. 10 d
[19] = 125 g ai/ha, visual injury rating on 0 to 100 scale (0 no effect, 100 complete control), approx. 10 d
[20] = Preemergence, 1000 g ai/ha, 0 is no effect, 100 is complete control

COC(=O)c1ccccc1NC(=O)C1C(=O)NCC1c1ccc(F)c(F)c1 (stereo not drawn) [Compound 417]
Plant response rating, Pigweed [1, 17]: 0 | Pigweed plant response rating (0 to 100 scale, 0 is no effect, 100 is complete control) [1, 18]: 0 | Plant response rating, Barnyardgrass [2, 17]: 0 | Barnyardgrass plant response rating (0 to 100 scale, 0 is no effect, 100 is complete control) [2, 18]: 0 | Plant response rating, Ragweed [3, 17]: 0 | Ragweed plant response rating (0 to 100 scale, 0 is no effect, 100 is complete control) [3, 18]: 0 | Plant response rating, Kochia [4, 17]: 0 | Kochia plant response rating (0 to 100 scale, 0 is no effect, 100 is complete control) [4, 18]: 0 | Plant response rating, Ryegrass, Italian [5, 17]: 0 | Ryegrass, Italian plant response rating (0 to 100 scale, 0 is no effect, 100 is complete control) [5, 18]: 0 | Plant response rating, Foxtail, Giant [6, 17]: 0 | Foxtail, Giant plant response rating (0 to 100 scale, 0 is no effect, 100 is complete control) [6, 18]: 0 | Pigweed plant response rating [7, 19]: 0 | Plant response rating, Pigweed ([7]; 500 g ai/ha): 0 | Wheat plant response rating [8, 19]: 0 | Plant response rating, Wheat ([8]; 500 g ai/ha): 0 | Blackgrass plant response rating [9, 19]: 0 | Plant response rating, Blackgrass ([9]; 500 g ai/ha): 0 | Barnyardgrass plant response rating [10, 19]: 0 | Plant response rating, Barnyardgrass ([10]; 500 g ai/ha): 0 | Ragweed plant response rating [11, 19]: 0 | Plant response rating, Ragweed ([11]; 500 g ai/ha): 0 | Galium plant response rating [12, 19]: 0 | Plant response rating, Galium ([12]; 500 g ai/ha): 0 | Kochia plant response rating [13, 19]: 0 | Plant response rating, Kochia ([13]; 500 g ai/ha): 0 | Corn plant response rating [14, 19]: 0 | Plant response rating, Corn ([14]; 500 g ai/ha): 0 | Ryegrass, Italian plant response rating [15, 19]: 0 | Plant response rating, Ryegrass, Italian ([15]; 500 g ai/ha): 0 | Foxtail, Giant plant response rating [16, 19]: 0 | Plant response rating, Foxtail, Giant ([16]; 500 g ai/ha): 0

O=C(Nc1cccc(F)c1F)C1C(=O)N(CC=CCl)CC1c1cc(F)cc(F)c1 (stereo not drawn) [Compound 512]
Pigweed plant response rating (0 to 100 scale) [1, 20]: 0 | Barnyardgrass plant response rating (0 to 100 scale) [2, 20]: 80 | Ragweed plant response rating (0 to 100 scale) [3, 20]: 0 | Kochia plant response rating (0 to 100 scale) [4, 20]: 0 | Ryegrass, Italian plant response rating (0 to 100 scale) [5, 20]: 0 | Foxtail, Giant plant response rating (0 to 100 scale) [6, 20]: 90 | Plant response rating, Pigweed ([7]; 1000 g ai/ha): 0 | Plant response rating, Wheat ([8]; 1000 g ai/ha): 0 | Plant response rating, Blackgrass ([9]; 1000 g ai/ha): 0 | Plant response rating, Barnyardgrass ([10]; 1000 g ai/ha): 80 | Plant response rating, Ragweed ([11]; 1000 g ai/ha): 0 | Plant response rating, Galium ([12]; 1000 g ai/ha): 0 | Plant response rating, Kochia ([13]; 1000 g ai/ha): 0 | Plant response rating, Corn ([14]; 1000 g ai/ha): 0 | Plant response rating, Ryegrass, Italian ([15]; 1000 g ai/ha): 0 | Plant response rating, Foxtail, Giant ([16]; 1000 g ai/ha): 90
